Reference: patent US6747021B2, “Cryptophycin compound” (Eli Lilly and Company, priority 2000, dated 2004)

Experiments:
[1] = tested on: COLON ADENOCARCINOMA-26/A; type: in vivo, murine; conditions: IV 6.5 mg/kg/inj days 1,5,9; total dose 19.5 mg/kg; Balb/C female mice
From the text: (§1) Inhibition of tumors transplanted into mice is an accepted procedure for studying the efficacy of antitumor agents (Corbett, et al., In vivo Methods for Screening and Preclinical Testing; Use of rodent solid tumors for drug discovery., In: Anticancer Drug Development Guide: Preclinical Screening, Clinical Trials, and Approval, B. Teicher (ed), Humana Press Inc., Totowa, N.J., Chapter 5, pages 75-99 (1997); (Corbett, et al., Int. J. Pharmacog., 33, Supplement, 102-122 (1995)). Murine tumors or human xenographs were implanted essentially as described by Corbett in In vivo Methods for Screening and Preclinical Testing; Use of rodent solid tumors for drug discovery. Briefly, the murine tumor or human xenograph was implanted subcutaneously using either 12-gauge trocar implants or counted number of cells. The location for the trocar insertion is midway between the axillary and inguinal region along the side of the mouse. The trocar is slipped approximately ¾ of an inch subcutaneously up toward the axilla before discharging the tumor fragment, and pinching the skin as the trocar is removed. Alternatively, human tumor cells prepared from a […] of donor tumors (5×10^6 cells) were implanted subcutaneously in a hind-leg of a male or female nude mouse (Charles River). Either a test compound in vehicle or vehicle alone was administered by intravenous bolus injection (iv), intraperitoneal injection (ip), or oral gavage (po). Each treatment group, as well as a group of untreated control animals, consisted of five animals per group in each experiment. Subcutaneous tumor response was monitored by tumor volume measurement performed twice each week over the course of the experiment (60-120 days). Body weights were taken as a general measure of toxicity. The subcutaneous tumor data were analyzed by determining the median tumor weight for each treatment group over the course of the experiment and calculating the tumor growth delay as the difference in days for the treatment versus the control tumors to reach a volume of either 500 or 1000 mm^3.
(§2) Cryptophycin-309 (309) was tested against a variety of murine and human tumors substantially as described supra. Cryptophycin-55 glycinate (55-GLY), Taxol, and Adriamycin (Adria) were also included in certain tests for purposes of comparison. Cryptophycin 55 glycinate is known in the art (WO 98/08505, Example 9) and has the following structure: [drawing 9]
(§3) Tumor Weight(mg)=(a×b^2)/2 where a=tumor length (mm) and b=tumor width (mm).
(§4) Tumor Growth Delay=T−C where T is the median time (days) required for the treatment group tumors to reach a predetermined size, and C is the median time (days) for the control group tumors to reach the same size. Tumor-free survivors are excluded from this calculation, and are tabulated separately (Tumor Free).
(§5) Log Kill=Tumor Growth Delay/(3.32)(Td)
(§6) where Tumor Growth Delay is as previously defined and Td is tumor volume doubling time (days), estimated from the best fit straight line from a log-linear growth plot of the control group of tumors in exponential growth (100-800 mg range)
(§7) %T/C mass—The treatment and control groups are measured when the control group tumors reach approximately 700 to 1200 mg in size (median group). The median tumor weight of each group is determined (including zeros). The T/C value in percent is an indication of antitumor effectiveness. A T/C≦42% is considered significant antitumor activity. A T/C<10% is considered to indicate highly significant antitumor activity.
(§8) Body Weight Loss Nadir—A body weight loss nadir (mean of group) of greater than 20% or drug deaths greater than 20% are considered to indicate an excessively toxic dosage in single course trials.
(§9) Activity Rating—the Activity Rating is derived from the Log Kill according to the following table: […]

[2] = tested on: COLON ADENOCARCINOMA 51/A; experiment: Early stage murine colon adenocarcinoma 51/A subcutaneous tumor assay; type: in vivo; conditions: IV 6.5 mg/kg/inj days 3,6,9; total dose 19.5 mg/kg; CDF female mice
From the text: as §1, §2, §3, §4, §5, §6, §7, §8, §9

[3] = tested on: MAMMARY ADENOCARCINOMA-16/C/Adr; experiment: Early stage murine mammary adenocarcinoma-16/C/Adr subcutaneous tumor assay; type: in vivo; conditions: IV 7.5 mg/kg/inj days 1 and 7; total dose 15 mg/kg; C3H female mice
From the text: as §1, §2, §3, §4, §5, §6, §7, §8, §9

COc1cccc2c1C(=O)c1c(O)c3c(c(O)c1C2=O)C[C@@](O)(C(=O)CO)C[C@@H]3O[C@H]1C[C@H](N)[C@H](O)[C@H](C)O1 [Adriamycin]
% T/C MASS [1]: 44%
DRUG DEATHS [1]: 0/5
LOG KILL [1]: None
MEDIAN TUMOR WEIGHT [1]: 393 mg
% T/C MASS [2]: 0%
ACTIVITY RATING [2]: +++ (2.0-2.8)
DRUG DEATHS [2]: 0/6
GROWTH DELAY [2]: 16.6 days
LOG KILL [2]: 2.0
MEDIAN TUMOR WEIGHT [2]: 0 mg
DRUG DEATHS [3]: 0/5
LOG KILL [3]: None
MEDIAN TUMOR WEIGHT [3]: 1096 mg
